{
  "source": "patent US20260248918A1",
  "about": "“COMPOSITIONS AND METHODS OF SUPPRESSING AVERSIVENESS OF PHARMACEUTICALS AND INGESTIBLE MATERIALS” (Monell Chemical Senses Center, priority 2019, published 2026)",
  "key": {"TAS2R14": {"target": "T1, TAS2R14 (Homo sapiens, UniProt Q9NYV8)", "T1 sequence (Q9NYV8 1-317)": "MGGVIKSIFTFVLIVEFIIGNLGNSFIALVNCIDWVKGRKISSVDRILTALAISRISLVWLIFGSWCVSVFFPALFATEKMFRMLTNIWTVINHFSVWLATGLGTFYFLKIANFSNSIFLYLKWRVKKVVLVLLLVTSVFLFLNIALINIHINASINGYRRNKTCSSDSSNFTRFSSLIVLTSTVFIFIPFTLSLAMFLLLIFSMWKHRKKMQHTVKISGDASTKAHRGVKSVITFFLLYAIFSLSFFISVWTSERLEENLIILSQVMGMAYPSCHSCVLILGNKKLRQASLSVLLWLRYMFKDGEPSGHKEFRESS", "experiment": "Response profile of TAS2Rs to target compounds: TAS2R14", "format": "cell-based", "conditions": "FIG. 4: Praziquantel 0.75 mM, L-praziquantel 0.1 mM, Dihydroartemisinin 2 mM (not fully dissolved), Piperaquine 0.5 mM, TAF 1 mM, Ritonavir 1 mM, Zinc sulfate 20 mM", "procedure": "(§1) FIG. 4 is a table showing response profiles of TAS2Rs to indicated target compounds at indicated concentrations. Praziquantel: 0.75 mM, L-praziquantel: 0.1 mM, Zinc sulfate: 20 mM, Dihydroartemisinin: 2 mM (not fully dissolved), Piperaquine, 0.5 mM, Tenofovir (TAF), 1 mM and Ritonavir, 1 mM. Symbols: + means that there was activation; a − negative sign means that there was no significant activation of the receptor; a “larger + sign” means that receptor(s) were most sensitive to the compound (activated at lower concentrations.\n(§2) Using a primary hTBEC platform, a high throughput screening (HTS) was conducted with more than 2,000 small molecular weight purified phytochemicals and botanical extracts. The screen identified 40 antagonists that suppressed taste cell activation by target APIs. […] TAS2R1 is responsive to piperaquine and tenofovir. (See FIG. 4)"}, "TAS2R39 [1]": {"target": "T2, TAS2R39 (Homo sapiens, UniProt P59534)", "T2 sequence (P59534 1-338)": "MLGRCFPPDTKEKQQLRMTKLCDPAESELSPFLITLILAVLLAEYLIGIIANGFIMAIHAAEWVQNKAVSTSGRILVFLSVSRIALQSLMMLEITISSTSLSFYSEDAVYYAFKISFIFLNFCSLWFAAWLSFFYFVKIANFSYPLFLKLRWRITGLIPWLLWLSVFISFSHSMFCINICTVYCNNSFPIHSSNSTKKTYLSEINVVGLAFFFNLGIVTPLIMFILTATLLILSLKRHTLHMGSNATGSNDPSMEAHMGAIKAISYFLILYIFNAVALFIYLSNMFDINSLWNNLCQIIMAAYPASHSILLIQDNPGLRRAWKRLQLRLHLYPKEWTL", "conditions": "reported in Roland et al. 2014, data not shown; cited from earlier work"}, "TAS2R39 [2]": {"target": "T2, TAS2R39", "experiment": "Response profile of TAS2Rs to target compounds: TAS2R39", "format": "cell-based", "design": "expressed in transfected cells; host or cells: HEK", "conditions": "FIG. 4: Piperaquine 0.5 mM, Tenofovir (TAF) 1 mM, Dihydroartemisinin 2 mM (not fully dissolved)", "procedure": "as §1, §2"}, "TAS2R1": {"target": "T3, TAS2R1 (Homo sapiens, UniProt Q9NYW7)", "T3 sequence (Q9NYW7 1-299)": "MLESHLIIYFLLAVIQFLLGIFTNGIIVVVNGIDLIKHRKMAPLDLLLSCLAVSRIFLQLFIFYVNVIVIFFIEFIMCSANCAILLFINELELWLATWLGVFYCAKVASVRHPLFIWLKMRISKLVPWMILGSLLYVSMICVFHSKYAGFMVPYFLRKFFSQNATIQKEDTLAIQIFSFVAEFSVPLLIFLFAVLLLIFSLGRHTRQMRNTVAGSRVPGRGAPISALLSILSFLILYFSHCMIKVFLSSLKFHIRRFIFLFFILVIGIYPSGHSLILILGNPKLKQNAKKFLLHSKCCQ", "experiment": "Response profile of TAS2Rs to target compounds: TAS2R1", "format": "cell-based", "conditions": "FIG. 4: Piperaquine 0.5 mM, Tenofovir (TAF) 1 mM", "procedure": "as §1, §2"}, "human subjects": {"tested_on": "human subjects", "experiment": "Human sensory testing (gLMS) of API bitterness with blocker, as pre-rinse or admixture", "format": "in vivo", "conditions": "added as sensory excipients to APIs", "description": "Methods of evaluating the sensory properties of the API and admixtures with the blocker compounds of Formula A are adopted from Breslin PA, and Tharp CD, “Reduction of saltiness and bitterness after a chlorhexidine rinse,” Chem Senses. 2001 February; 26(2):105-16. More details are illustrated below.\nSubjects participate in the study after providing informed consent. Gender of the subjects is balanced between male and female. The subjects are adults with ages ranging from 20 years old to 50 years old. […] The participants are asked to refrain from eating, drinking, or chewing gum for 1 hr prior to testing. Subjects are trained to use the General Labeled Magnitude Scale (gLMS) following standard published procedures. See. e.g., Breslin P A, and Tharp C D. “Reduction of saltiness and bitterness after a chlorhexidine rinse,” Chem Senses. 2001 February; 26(2): 105-16; Keast and Breslin, “Bitterness suppression with zinc sulfate and Na-cyclamate: a model of combined peripheral and central neural approaches to flavor modification.” Pharm Res. 2005 November; 22(11):1970-7. Epub 2005 Aug. 26; Green et al, “Evaluating the ‘Labeled Magnitude Scale’ for measuring sensations of taste and smell.” Chem Senses. 1996 June; 21(3):323-34; Barry G. Green, et al, “Derivation and evaluation of a semantic scale of oral sensation magnitude with apparent ratio properties,” Chemical Senses, Volume 18, Issue 6, 1 Dec. 1993, Pages 683-702; and Bartoshuk L M, “Comparing sensory experiences across individuals: recent psychophysical advances illuminate genetic variation in taste perception.” Chem Senses. 2000 August; 25(4):447-60.\nThe selected API (in racemic or L form as applicable) is diluted/dissolved in deionized (di) filtered water upon use into various concentrations. […] The API is prepared and dissolved in deionized filtered water or in […] 6-methylflavone to a final concentration. All solutions are stored on ice or at 4° C. to 8° C. and brought up to room temperature prior to testing.\nThe following testing protocol is performed. The tested solutions are provided to the subjects in random order. Subjects rinsed with di water at least four times over a 2-minute period prior to tasting each solution. The subjects are instructed to wear nose clips to eliminate olfactory input, pour the whole solution in their mouth for 3-5 seconds, and rate the perceived sensation (including bitterness, sourness, astringency, burning, stinging and nausea) intensity of the solution while it remained in the mouth, prior to expectorating. Taste intensity is recorded on a computerized gLMS, analyzed and plotted."}},
  "note": "Structures can show the parent of a compound that is named as a salt.",
  "data": [
    {"molecule": "O=C(C1CCCCC1)N1CC(=O)N2CCc3ccccc3C2C1", "note": "(racemic) [Praziquantel]", "values": [
      {"measurement": "Activation of TAS2R14", "setting": "TAS2R14", "value": "one of most responsive receptors"}
    ]},
    {"molecule": "COc1ccc2oc(-c3ccccc3)cc(=O)c2c1", "note": "[6-methoxyflavone]", "values": [
      {"measurement": "Inhibition of hTAS2R39 activation", "setting": "TAS2R39 [1]", "value": "unable to inhibit"}
    ]},
    {"molecule": "O=C(C1CCCCC1)N1CC(=O)N2CCc3ccccc3[C@@H]2C1", "note": "[L-praziquantel]", "values": [
      {"measurement": "Activation of TAS2R14", "setting": "TAS2R14", "value": "one of most responsive receptors"}
    ]},
    {"molecule": "Clc1ccc2c(N3CCN(CCCN4CCN(c5ccnc6cc(Cl)ccc56)CC4)CC3)ccnc2c1", "note": "[Piperaquine]", "values": [
      {"measurement": "Activation of TAS2R39", "setting": "TAS2R39 [2]", "value": "one of the most responsive receptors"},
      {"measurement": "Activation of TAS2R1", "setting": "TAS2R1", "value": "responsive"}
    ]},
    {"molecule": "CC(C)c1nc(CN(C)C(=O)N[C@H](C(=O)N[C@@H](Cc2ccccc2)C[C@H](O)[C@H](Cc2ccccc2)NC(=O)OCc2cncs2)C(C)C)cs1", "note": "[Ritonavir]", "values": [
      {"measurement": "Activation of TAS2R14", "setting": "TAS2R14", "value": "one of most responsive receptors"}
    ]},
    {"molecule": "CC(C)OC(=O)[C@H](C)N[P@](=O)(CO[C@H](C)Cn1cnc2c(N)ncnc21)Oc1ccccc1", "note": "[TAF, tenofovir alafenamide fumarate]", "values": [
      {"measurement": "Activation of TAS2R39", "setting": "TAS2R39 [2]", "value": "one of the most responsive receptors"},
      {"measurement": "Activation of TAS2R1", "setting": "TAS2R1", "value": "responsive"}
    ]},
    {"molecule": "sodium", "values": [
      {"measurement": "Reduction of API bitterness by sensory excipients", "setting": "human subjects", "value": "significantly reduce"}
    ]},
    {"molecule": "zinc", "values": [
      {"measurement": "Reduction of API bitterness by sensory excipients", "setting": "human subjects", "value": "significantly reduce"}
    ]}
  ]
}
